Consider 13 compounds from patent US11731986B2 (Sanford Burnham Prebys Medical Discovery Institute, priority 2017, dated 2023).

The target in this test is T1, human LMPTP-A (Homo sapiens, UniProt P24666).
T1 sequence (P24666 1-158): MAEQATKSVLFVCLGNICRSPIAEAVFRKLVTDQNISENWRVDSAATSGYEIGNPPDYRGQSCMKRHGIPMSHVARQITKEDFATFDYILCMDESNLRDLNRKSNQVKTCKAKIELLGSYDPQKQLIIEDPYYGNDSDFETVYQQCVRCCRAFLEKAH
Kind of test: Enzyme Assay of Inhibition of LMPTP-A (phosphatase assay, OMFP or pNPP substrate). Type of test: biochemical. The note with it: Bis-Tris pH 6.0, 37° C. The procedure, abridged: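 Buffer 50 mM Bis-Tris pH 6.0, 1 mM DTT, 0.01% Triton X-100, 37 °C; OMFP read continuously (485/525 nm) or pNPP stopped with NaOH, 405 nm. IC50 from concentration vs % activity. Selectivity: 40 μM compound with 0.4 mM OMFP or 5 mM pNPP; reversibility: 50 nM enzyme, 10 μM compound, 5 min, 100× dilution.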

`O=C(NCCCN1CCCCC1)c1ccc(-c2cc(NC3CCOCC3)c3cnccc3n2)cc1` [N-(3-(Piperidin-1-yl)propyl)-4-(4-((tetrahydro-2H-pyran-4-yl)amino)-1,6-naphthyridin-2-yl)benzamide]: the IC50 was 1000 to 20000 nM.
In the case of `O=C(NCCCN1CCCCC1)c1ccc(-c2cc(NC3CCNCC3)c3cnccc3n2)cc1` [N-(3-(Piperidin-1-yl)propyl)-4-(4-(piperidin-4-ylamino)-1,6-naphthyridin-2-yl)benzamide] it was 1000 to 20000 nM; in that of `O=C(NCCCN1CCCCC1)c1ccc(-c2cc(NC3CCNC3)c3cnccc3n2)cc1` (stereo not shown) [N-(3-(Piperidin-1-yl)propyl)-4-(4-(pyrrolidin-3-ylamino)-1,6-naphthyridin-2-yl)benzamide], 1000 to 20000 nM; in that of `O=C(NCCCN1CCCCC1)c1cc2ccc(-c3cc(NCCCN4CCCCC4)c4cnccc4n3)cc2[nH]1` [N-(3-(Piperidin-1-yl)propyl)-6-(4-(3-(piperidin-1-yl)propylamino)-1,6-naphthyridin-2-yl)-1H-indole-2-carboxamide], 1000 to 20000 nM.
In turn, `O=C(COCc1ccc(-c2cc(NCCCN3CCCCC3)c3cnccc3n2)cc1)NCCCN1CCCCC1` [N-(3-(piperidin-1-yl)propyl)-2-((4-(4-((3-(piperidin-1-yl)propyl)amino)-1,6-naphthyridin-2-yl)benzyl)oxy)acetamide] returned a concentration for half-maximal inhibition (IC50) of 1000 to 20000 nM.
With `O=C(NCCCN1CCCCC1)c1cc2cc(-c3cc(NCCCN4CCCCC4)c4cnccc4n3)ccc2s1` [N-(3-(piperidin-1-yl)propyl)-5-(4-(3-(piperidin-1-yl)propylamino)-1,6-naphthyridin-2-yl)benzo[b]thiophene-2-carboxamide] the figure was 1000 to 20000 nM; with `O=C(NCCCN1CCCCC1)c1nc2cc(-c3cc(NCCCN4CCCCC4)c4cnccc4n3)ccc2[nH]1` [N-(3-(piperidin-1-yl)propyl)-5-(4-((3-(piperidin-1-yl)propyl)amino)-1,6-naphthyridin-2-yl)-1H-benzo[d]imidazole-2-carboxamide], at most 1000 nM.
In the case of `O=C(NCCCN1CCCCC1)c1ccc(-c2cc(NCCCN3CCCCC3)c3cnccc3n2)cn1` [N-(3-(piperidin-1-yl)propyl)-5-(4-((3-(piperidin-1-yl)propyl)amino)-1,6-naphthyridin-2-yl)picolinamide] it was at least 20000 nM.
In the case of `O=C(NCCCN1CCCCC1)c1nc2cc(-c3cc(Nc4ccc(CN5CCCC5)cc4)c4cnccc4n3)ccc2[nH]1` [N-(3-(piperidin-1-yl)propyl)-5-(4-((4-(pyrrolidin-1-ylmethyl)phenyl)amino)-1,6-naphthyridin-2-yl)-1H-benzo[d]imidazole-2-carboxamide] it was at most 1000 nM.
As for `O=C(NCCCN1CCCCC1)c1cc2ccc(-c3cc(NCCCN4CCCCC4)c4cnccc4n3)cc2s1` [N-(3-(piperidin-1-yl)propyl)-6-(4-(3-(piperidin-1-yl)propylamino)-1,6-naphthyridin-2-yl)benzo[b]thiophene-2-carboxamide], the concentration for half-maximal inhibition (IC50) is at most 1000 nM.
With `CN1CCC(CNC(=O)CCc2ccc(-c3cc(NCCCN4CCCCC4)c4cnccc4n3)cc2)CC1` [N-((1-Methylpiperidin-4-yl)methyl)-3-(4-(4-(3-(piperidin-1-yl)propylamino)-1,6-naphthyridin-2-yl)phenyl)propanamide] the figure was at most 1000 nM.
In the case of `CCN1CCC(CNC(=O)COCc2ccc(-c3cc(NCCCN4CCCCC4)c4cnccc4n3)cc2)CC1` [N-((1-ethylpiperidin-4-yl)methyl)-2-(4-(4-(3-(piperidin-1-yl)propylamino)-1,6-naphthyridin-2-yl)benzyloxy)acetamide] it was 1000 to 20000 nM; in that of `CCN1CCC(CNC(=O)CCOc2ccc(-c3cc(NCCCN4CCCCC4)c4cnccc4n3)cc2)CC1` [N-((1-ethylpiperidin-4-yl)methyl)-3-(4-(4-((3-(piperidin-1-yl)propyl)amino)-1,6-naphthyridin-2-yl)phenoxy)propanamide], at least 20000 nM.
